Reference: US20110207800A1, “HIV-Dependent expression constructs and uses therefore” (priority 2008, published 2011)

Legend:
α-hemolysin = α-hemolysin (Staphylococcus aureus, UniProt P09616); type: cell-based
[1] = system: HIV-1-positive J1.1 cell line; type: cell-based
AnlO = type: cell-based, Bacillus anthracis
healthy macrophages = type: cell-based, human

Sequence of α-hemolysin (P09616 27-319 limits assumed): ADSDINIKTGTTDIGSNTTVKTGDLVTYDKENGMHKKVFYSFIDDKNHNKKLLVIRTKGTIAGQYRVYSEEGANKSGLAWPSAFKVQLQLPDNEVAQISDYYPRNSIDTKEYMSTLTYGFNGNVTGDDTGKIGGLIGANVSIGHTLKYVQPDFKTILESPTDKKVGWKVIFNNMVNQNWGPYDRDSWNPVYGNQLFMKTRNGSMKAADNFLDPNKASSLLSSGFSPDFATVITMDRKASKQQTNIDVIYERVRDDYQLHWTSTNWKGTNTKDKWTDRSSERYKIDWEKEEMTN

Row | Compound | number of GFP positive cells (α-hemolysin) | infectivity of virus generated in the presence of the compound [1] | change of GFP-positive cell population (inhibition of cytolysis by anlO) (AnlO) | cytolysis, share of the cells (healthy macrophages) | time to detection of cytolysis (healthy macrophages; 500 ng/ml)
1 | 6-boc orthinine amide-β-cyclodextrin [6-BOCD] | did not increase | no difference in infectivity | doubling |  | 
2 | COc1ccc(C[C@H](N)C(=O)N[C@H]2[C@@H](O)[C@H](n3cnc4c(N(C)C)ncnc43)O[C@@H]2CO)cc1 [puromycin] |  |  |  | 25% | ≤ 2 days
